Common to all, as to test: biochemical
What all share (assay type): binding

The target in test [1] is T1, panel of 442 kinases (Homo sapiens, UniProt O14976).
T1 construct: purchased Ambit Biosciences (scanMAXX KINOMEscan)
T1 sequence (O14976 1-1311): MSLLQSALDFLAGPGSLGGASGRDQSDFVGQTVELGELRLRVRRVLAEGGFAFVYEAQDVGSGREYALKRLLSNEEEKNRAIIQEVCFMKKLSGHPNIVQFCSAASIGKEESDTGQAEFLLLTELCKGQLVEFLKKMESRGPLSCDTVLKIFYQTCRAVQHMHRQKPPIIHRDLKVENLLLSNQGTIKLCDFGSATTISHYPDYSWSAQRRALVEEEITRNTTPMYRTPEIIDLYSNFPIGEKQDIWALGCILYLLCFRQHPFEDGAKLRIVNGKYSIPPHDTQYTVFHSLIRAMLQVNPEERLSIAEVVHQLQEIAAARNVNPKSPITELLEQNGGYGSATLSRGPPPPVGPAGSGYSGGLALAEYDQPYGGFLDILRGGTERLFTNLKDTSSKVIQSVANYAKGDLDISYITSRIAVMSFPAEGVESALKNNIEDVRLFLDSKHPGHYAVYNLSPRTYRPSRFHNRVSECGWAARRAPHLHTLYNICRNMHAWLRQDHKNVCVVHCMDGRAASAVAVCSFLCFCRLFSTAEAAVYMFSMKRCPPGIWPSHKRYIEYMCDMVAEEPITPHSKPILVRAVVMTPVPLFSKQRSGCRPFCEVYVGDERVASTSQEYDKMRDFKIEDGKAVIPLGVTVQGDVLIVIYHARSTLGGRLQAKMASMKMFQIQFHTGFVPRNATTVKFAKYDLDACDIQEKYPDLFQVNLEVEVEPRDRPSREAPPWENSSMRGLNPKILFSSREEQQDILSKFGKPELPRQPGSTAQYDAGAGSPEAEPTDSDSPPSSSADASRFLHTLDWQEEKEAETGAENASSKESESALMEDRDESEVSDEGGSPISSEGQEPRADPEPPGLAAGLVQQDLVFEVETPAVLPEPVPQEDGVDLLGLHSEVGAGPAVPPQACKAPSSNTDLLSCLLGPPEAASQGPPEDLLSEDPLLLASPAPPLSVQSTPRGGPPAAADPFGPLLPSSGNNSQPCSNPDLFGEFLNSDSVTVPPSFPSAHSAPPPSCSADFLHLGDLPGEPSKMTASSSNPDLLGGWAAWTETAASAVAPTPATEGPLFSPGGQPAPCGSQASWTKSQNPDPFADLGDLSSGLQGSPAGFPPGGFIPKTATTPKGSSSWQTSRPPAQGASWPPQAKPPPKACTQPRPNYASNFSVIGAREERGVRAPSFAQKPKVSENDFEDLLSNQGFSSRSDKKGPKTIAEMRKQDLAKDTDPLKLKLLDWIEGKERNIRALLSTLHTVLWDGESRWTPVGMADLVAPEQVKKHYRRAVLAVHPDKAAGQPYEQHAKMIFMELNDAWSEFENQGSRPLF
To be noted: kinase GAK; for remaining activity at 1 µM: read-out: % of control at 1 µM.

Test [2] concerns the target T2, panel of 442 kinases (Homo sapiens, UniProt P00519, Q252H).
T2 construct: purchased Ambit Biosciences (scanMAXX KINOMEscan)
Particulars: for remaining activity at 1 µM: read-out: % of control at 1 µM; for remaining activity at 10 µM: read-out: % of control at 10 µM.

Test [3] concerns the target T3, panel of 442 kinases (Homo sapiens, UniProt P11362).
T3 construct: purchased Ambit Biosciences (scanMAXX KINOMEscan)
Particulars: FGFR1; for remaining activity at 1 µM: read-out: % of control at 1 µM.

For test [4], the target named is T4, panel of 442 kinases (Homo sapiens, UniProt P29323).
T4 construct: purchased Ambit Biosciences (scanMAXX KINOMEscan)
T4 sequence (P29323 19-1055): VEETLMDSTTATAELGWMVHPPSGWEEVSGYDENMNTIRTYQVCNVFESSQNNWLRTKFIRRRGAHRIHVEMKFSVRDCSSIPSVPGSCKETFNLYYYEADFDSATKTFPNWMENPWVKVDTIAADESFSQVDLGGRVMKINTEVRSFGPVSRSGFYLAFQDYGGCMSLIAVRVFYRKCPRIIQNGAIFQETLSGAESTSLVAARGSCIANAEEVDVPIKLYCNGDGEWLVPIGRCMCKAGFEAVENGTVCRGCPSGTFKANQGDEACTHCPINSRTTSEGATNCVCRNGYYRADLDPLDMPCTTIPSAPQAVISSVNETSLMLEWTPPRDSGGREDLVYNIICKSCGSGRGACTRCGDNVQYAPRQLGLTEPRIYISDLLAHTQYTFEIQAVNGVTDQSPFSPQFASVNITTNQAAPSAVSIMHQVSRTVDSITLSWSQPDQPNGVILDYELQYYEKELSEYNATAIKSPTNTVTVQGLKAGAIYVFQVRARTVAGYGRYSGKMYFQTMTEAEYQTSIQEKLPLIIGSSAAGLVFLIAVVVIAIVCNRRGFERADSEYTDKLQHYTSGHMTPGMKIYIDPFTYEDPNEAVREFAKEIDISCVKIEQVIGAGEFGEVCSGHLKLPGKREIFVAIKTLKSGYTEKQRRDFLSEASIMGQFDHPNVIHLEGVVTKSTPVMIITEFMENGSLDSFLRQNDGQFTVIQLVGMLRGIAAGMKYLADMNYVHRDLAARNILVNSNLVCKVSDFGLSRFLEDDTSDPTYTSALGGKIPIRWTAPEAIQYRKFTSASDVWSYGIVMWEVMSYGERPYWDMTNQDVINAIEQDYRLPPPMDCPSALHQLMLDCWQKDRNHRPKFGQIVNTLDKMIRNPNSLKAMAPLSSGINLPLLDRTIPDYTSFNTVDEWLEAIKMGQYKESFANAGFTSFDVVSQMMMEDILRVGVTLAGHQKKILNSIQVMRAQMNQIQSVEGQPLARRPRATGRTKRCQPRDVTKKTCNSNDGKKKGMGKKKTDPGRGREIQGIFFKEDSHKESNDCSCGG
Particulars: EPHB2; for remaining activity at 1 µM: read-out: % of control at 1 µM.

Test [5] has as its target T5, panel of 442 kinases (Homo sapiens, UniProt P48729).
T5 construct: purchased Ambit Biosciences (scanMAXX KINOMEscan)
Particulars: CSNK1A1; for remaining activity at 1 µM: read-out: % of control at 1 µM.

Test [6] deals with T6, panel of 442 kinases (Homo sapiens, UniProt Q14004).
T6 construct: purchased Ambit Biosciences (scanMAXX KINOMEscan)
Particulars: for remaining activity at 1 µM: read-out: % of control at 1 µM; for remaining activity at 10 µM: read-out: % of control at 10 µM.

Test [7] deals with T7, panel of 442 kinases (Homo sapiens, UniProt Q15746).
T7 construct: purchased Ambit Biosciences (scanMAXX KINOMEscan)
To be noted: kinase MYLK; for remaining activity at 1 µM: read-out: % of control at 1 µM.

Test [8] deals with T8, panel of 442 kinases (Homo sapiens, UniProt Q9H2G2).
T8 construct: purchased Ambit Biosciences (scanMAXX KINOMEscan)
To be noted: kinase SLK; for remaining activity at 1 µM: read-out: SLK (% of control at 1 µM).

Setting [9] is: 10 µM, read-out: % of control at 10 µM.

SMILES strings stand for the structures. Like-named read-outs stand apart in the source and are kept apart here.

T5 sequence (P48729 whole entry): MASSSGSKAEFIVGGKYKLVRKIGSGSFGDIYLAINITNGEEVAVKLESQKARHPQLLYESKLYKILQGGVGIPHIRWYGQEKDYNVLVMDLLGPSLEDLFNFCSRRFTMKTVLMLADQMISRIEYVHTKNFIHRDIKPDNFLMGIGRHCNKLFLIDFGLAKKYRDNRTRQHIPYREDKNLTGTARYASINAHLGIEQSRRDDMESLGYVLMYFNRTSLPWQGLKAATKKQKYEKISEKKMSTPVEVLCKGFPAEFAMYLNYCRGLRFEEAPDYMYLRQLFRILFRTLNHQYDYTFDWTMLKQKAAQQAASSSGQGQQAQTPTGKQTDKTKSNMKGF
T3 sequence (P11362 22-822): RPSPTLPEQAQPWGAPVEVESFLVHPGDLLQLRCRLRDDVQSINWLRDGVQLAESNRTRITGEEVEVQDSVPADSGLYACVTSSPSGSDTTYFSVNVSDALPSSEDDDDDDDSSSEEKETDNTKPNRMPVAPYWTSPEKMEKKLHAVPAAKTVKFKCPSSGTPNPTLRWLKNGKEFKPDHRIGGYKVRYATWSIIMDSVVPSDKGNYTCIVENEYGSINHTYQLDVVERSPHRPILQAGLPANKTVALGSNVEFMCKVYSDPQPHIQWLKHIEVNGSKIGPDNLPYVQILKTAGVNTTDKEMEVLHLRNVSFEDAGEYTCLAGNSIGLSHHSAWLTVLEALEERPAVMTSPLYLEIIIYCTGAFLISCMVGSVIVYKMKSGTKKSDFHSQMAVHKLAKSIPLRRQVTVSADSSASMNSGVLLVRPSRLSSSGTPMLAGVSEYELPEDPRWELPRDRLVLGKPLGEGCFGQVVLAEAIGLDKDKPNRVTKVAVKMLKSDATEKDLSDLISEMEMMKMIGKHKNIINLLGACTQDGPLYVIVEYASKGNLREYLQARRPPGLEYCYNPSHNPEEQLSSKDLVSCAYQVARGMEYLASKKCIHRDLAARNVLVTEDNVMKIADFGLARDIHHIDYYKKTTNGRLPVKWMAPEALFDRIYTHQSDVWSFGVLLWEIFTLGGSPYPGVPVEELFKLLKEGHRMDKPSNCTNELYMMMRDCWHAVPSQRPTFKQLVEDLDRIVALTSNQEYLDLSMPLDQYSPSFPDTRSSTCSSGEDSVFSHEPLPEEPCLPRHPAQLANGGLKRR
T8 sequence (Q9H2G2 whole entry): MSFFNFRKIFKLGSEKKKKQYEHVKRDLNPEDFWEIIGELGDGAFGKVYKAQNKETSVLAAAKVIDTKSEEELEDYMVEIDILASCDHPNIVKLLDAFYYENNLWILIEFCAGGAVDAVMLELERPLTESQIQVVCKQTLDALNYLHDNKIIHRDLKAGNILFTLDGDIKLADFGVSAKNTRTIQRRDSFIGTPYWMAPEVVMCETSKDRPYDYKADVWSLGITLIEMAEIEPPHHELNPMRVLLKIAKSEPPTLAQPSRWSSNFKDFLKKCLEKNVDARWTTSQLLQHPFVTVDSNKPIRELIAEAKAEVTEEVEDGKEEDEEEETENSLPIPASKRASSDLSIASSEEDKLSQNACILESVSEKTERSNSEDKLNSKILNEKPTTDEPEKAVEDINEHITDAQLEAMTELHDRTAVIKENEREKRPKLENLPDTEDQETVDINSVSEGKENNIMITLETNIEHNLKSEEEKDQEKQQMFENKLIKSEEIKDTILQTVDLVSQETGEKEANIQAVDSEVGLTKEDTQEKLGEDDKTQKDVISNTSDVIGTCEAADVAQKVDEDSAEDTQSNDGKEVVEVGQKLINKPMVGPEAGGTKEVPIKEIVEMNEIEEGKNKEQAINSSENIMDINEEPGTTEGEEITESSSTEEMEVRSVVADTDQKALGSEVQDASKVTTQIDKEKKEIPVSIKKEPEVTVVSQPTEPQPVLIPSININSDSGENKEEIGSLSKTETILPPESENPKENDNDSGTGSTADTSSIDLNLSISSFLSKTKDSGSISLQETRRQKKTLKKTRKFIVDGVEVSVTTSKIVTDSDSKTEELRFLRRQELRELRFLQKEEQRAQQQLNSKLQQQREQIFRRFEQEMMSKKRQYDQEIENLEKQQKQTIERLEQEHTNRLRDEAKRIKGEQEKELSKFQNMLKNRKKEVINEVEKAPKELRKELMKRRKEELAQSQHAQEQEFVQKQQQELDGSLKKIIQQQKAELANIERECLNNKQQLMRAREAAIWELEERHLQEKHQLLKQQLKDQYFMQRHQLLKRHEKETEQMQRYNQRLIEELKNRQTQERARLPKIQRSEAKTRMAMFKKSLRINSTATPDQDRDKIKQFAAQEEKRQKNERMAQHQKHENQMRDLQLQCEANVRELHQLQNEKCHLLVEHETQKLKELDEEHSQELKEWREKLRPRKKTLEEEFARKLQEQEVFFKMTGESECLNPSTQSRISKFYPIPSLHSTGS
T7 sequence (Q15746 whole entry): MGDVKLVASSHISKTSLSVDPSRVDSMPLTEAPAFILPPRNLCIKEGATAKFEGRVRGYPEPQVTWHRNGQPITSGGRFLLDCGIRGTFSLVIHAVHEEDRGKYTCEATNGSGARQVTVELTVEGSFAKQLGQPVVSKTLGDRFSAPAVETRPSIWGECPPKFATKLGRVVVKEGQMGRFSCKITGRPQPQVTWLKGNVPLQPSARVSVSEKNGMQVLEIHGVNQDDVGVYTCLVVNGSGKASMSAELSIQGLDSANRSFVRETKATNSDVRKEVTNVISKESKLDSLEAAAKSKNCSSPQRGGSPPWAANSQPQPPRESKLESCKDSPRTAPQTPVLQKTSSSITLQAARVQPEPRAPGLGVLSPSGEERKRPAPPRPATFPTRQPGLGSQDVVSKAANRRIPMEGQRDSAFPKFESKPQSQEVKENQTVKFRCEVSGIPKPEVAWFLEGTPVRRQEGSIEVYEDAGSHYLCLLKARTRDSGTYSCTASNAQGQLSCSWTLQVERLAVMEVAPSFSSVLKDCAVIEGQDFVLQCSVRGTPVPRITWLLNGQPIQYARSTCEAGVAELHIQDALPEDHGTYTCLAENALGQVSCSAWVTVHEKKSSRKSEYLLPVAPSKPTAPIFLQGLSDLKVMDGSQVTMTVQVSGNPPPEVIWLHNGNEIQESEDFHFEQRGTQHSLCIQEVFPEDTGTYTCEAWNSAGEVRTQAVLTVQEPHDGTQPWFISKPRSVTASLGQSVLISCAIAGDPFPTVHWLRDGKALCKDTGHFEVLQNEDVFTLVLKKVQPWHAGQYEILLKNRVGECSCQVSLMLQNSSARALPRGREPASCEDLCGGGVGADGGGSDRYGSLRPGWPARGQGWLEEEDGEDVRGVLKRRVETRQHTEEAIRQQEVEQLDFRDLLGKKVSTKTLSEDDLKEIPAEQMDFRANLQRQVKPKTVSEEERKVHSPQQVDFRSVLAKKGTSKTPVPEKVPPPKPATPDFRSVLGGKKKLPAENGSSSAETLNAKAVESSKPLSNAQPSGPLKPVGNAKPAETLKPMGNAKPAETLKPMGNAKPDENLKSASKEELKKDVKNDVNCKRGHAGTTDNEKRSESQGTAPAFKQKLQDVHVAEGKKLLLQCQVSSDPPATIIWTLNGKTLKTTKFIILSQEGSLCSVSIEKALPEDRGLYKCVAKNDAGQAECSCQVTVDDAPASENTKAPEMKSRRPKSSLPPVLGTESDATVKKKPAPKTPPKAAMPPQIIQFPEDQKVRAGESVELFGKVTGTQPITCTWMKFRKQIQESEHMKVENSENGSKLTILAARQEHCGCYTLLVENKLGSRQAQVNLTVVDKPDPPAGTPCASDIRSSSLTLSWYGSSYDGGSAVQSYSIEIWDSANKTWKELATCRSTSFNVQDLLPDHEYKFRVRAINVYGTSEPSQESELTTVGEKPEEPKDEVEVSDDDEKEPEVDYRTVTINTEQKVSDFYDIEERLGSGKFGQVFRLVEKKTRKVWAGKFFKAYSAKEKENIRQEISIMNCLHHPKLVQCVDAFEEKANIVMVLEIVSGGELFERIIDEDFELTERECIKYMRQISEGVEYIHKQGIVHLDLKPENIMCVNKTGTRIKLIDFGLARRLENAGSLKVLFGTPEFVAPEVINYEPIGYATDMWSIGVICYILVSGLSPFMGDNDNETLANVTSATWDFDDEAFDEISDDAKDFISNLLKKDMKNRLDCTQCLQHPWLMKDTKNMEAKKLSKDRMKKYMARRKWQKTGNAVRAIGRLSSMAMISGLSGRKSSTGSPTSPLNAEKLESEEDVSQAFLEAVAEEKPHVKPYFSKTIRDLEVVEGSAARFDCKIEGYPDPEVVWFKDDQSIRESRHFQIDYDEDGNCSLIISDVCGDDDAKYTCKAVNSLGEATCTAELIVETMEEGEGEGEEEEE

With `Nc1cc(C(F)(F)F)c(-c2cc(N3CCOCC3)nc(N3CCOCC3)n2)cn1` [Buparlisib], the remaining activity at 1 µM in test [1] is 100%; in test [2] (ABL1(Q252H)-nonphosphorylated), 100%; in test [2] (ABL1(Q252H)-phosphorylated), 72%; in test [3], 100%; in test [4], 82%; in test [5] it was 88%. The remaining activity at 1 µM turned out to be 75% in test [6] (CDC2L5, 1 µM); 99% in test [7]; 100% in test [8]. Besides, the remaining activity at 10 µM in test [1] (setting [9]), in test [2] (ABL1(Q252H)-nonphosphorylated), in test [2] (ABL1(Q252H)-phosphorylated), in test [3] (setting [9]), in test [4] (setting [9]) and in test [5] (setting [9]) was 100% in each case. Further, the remaining activity at 10 µM turned out to be 100% in test [6] (CDC2L5); 92% in test [7] (setting [9]); 100% in test [8] (10 µM, read-out: SLK (% of control at 10 µM)).
As to `Cn1c(=O)n(-c2ccc(C(C)(C)C#N)cc2)c2c3cc(-c4cnc5ccccc5c4)ccc3ncc21` [Dactolisib, 2-methyl-2-[4-(3-methyl-2-oxo-8-quinolin-3-yl-2,3-dihydroimidazo[4,5-c]quinolin-1-yl)-phenyl] propionitrile], the remaining activity at 1 µM in test [1] came to 60%; in test [2] (ABL1(Q252H)-nonphosphorylated) it was 57%; in test [2] (ABL1(Q252H)-phosphorylated) it was 59%; in test [3], 94%; in test [4], 100%; in test [5], 99%. The remaining activity at 1 µM was determined as 87% in test [6] (CDC2L5, 1 µM); 100% in test [7]; 89% in test [8].
As for `FC(F)c1nc2ccccc2n1-c1nc(N2CCOCC2)nc(N2CCOCC2)n1` [ZSTK474, 2-(difluoromethyl)-1-[4,6-di(4-morpholinyl)-1,3,5-triazin-2-yl]-1H-benzimidazole], the remaining activity at 1 µM is 78% in test [1]; 100% in test [2] (ABL1(Q252H)-nonphosphorylated); 100% in test [2] (ABL1(Q252H)-phosphorylated); 100% in test [3]; 94% in test [4]; 91% in test [5]. For the same compound, the remaining activity at 1 µM in test [6], in test [7] and in test [8] was 100% throughout.
As to `CS(=O)(=O)N1CCN(Cc2cc3nc(-c4cccc5[nH]ncc45)nc(N4CCOCC4)c3s2)CC1` [Pictilisib, 2-(1H-indazol-4-yl)-6-(4-methanesulfonyl-piperazin-1-ylmethyl)-4-morpholin-4-yl-t hieno[3,2-d]pyrimidine], the remaining activity at 1 µM in test [6] (CDC2L5, 1 µM) worked out at 70%. The remaining activity at 10 µM in test [6] (CDC2L5) amounted to 100%.
Take `COc1ncc(-c2ccc3nccc(-c4ccnnc4)c3c2)cc1NS(=O)(=O)c1ccc(F)cc1F` [Omipalisib]: the remaining activity at 1 µM came out at 61% in test [1]; 100% in test [2] (ABL1(Q252H)-nonphosphorylated); 100% in test [2] (ABL1(Q252H)-phosphorylated); 94% in test [3]; 100% in test [4]; 100% in test [5]. Besides, the remaining activity at 1 µM was 100% in test [6] (CDC2L5, 1 µM); 78% in test [7]; 100% in test [8].

For the origin of these results see article PMC5564600 (Oncotarget, 2017).
